Structures can show the parent of a compound that is named as a salt.
Key:
LDL receptor mRNA [1] = assay: Stimulation of LDL receptor mRNA expression in rat livers after administration (Northern blot); assay type: in vivo; settings: rat liver, 6 hours after administration, untreated control=100%
Source text: (§1) Using a surrogate system, the present inventors sought to confirm the pharmacological activity of the inventive compounds. Thus, utilizing the human hepatocytoma cell line HepG2, which is recognized on all sides as a model, it was observed that the LDL receptor mRNA levels are increased by the compounds of the formula I (Table I). Even in rat livers, within a few hours the LDL receptor mRNA levels are increased by the compounds of the formula I (Table II). The observed stimulation is in the range from 170 to 350% of the controls (control=100%). Accordingly, an effective amount of an inventive compound can include an amount sufficient to increase CDL receptor levels or reduce plasma lipid levels.
The preparation of the mRNA was carried out according to the method of Chomczynski, P. and Sacchi, N., Anal. Biochem. 162, 156-159 (1987). In organs (such as, for example, liver), the deep-frozen tissue was homogenized on dry ice beforehand in a mortar, and the mRNA was further enriched by means of Oligo dT according to standard methods (cf. Sambrook, J., Fritsch, E. F. and Maniatis, T., Molecular Cloning, second Edition, Cold Spring Harbor (1989); in this collection of methods, there are also descriptions of all further relevant molecular biology standard methods used here). Five to […] of the dissolved mRNA thus obtained were denatured according to standard methods and separated on 1% horizontal agarose gels. The mRNA was transferred to Hybond N membranes (Amersham) by means of capillary blot. The specific hybridization probe used was a partial LDL receptor cDNA clone and the internal standard a plasmid which contained a β-actin gene. Both plasmids were labeled by means of a random primer kit from Amersham up to a specific activity of 5×10^9 cpm/μg. Prehybridization, hybridization and washing of the filters were carried out by standard methods. The filters were then exposed at -70° C. on Cronex 4 films (Dupont) overnight up to 14 days in the presence of an intensifying screen, and the hybridization signals were quantified using a commercial laser densitometer by means of the film-blackening intensity. The quotient of the intensity of the LDL receptor band and of the actin band was then determined as an internal standard to correct yield variations.
Liver tissue was removed and shock-frozen in liquid nitrogen. The mRNA was then isolated as described, and the relative LDL receptor mRNA levels were determined by means of the Northern blot technique. The mRNA levels of untreated control animals were set at 100%, and the stimulation of the LDL receptor mRNA in percent of the control was calculated.

[2] = Metabolic stability: dealkylation to compound A in in vitro incubations (HPLC); assay type: in vitro ADME; settings: human, liver 9000 g fraction, 37° C., R1-dealkylated metabolite, read-out: relative content of compound A; for metabolised at 0.5 h: incubation time 0.5 h; for metabolised at 1 h: incubation time 1 h; for metabolised at 2 h: incubation time 2 h; for metabolised at 3 h: incubation time 3 h
Source text: It is known that compounds of formula I where R^1 =alkyl are degraded in the metabolism to compounds of the formula I where R^1 =H (in the following called compound A). Accordingly, the instant inventors sought to investigate the metabolic fate of our inventive compounds. The following experiments, which can be carried out using intact human hepatocytes or liver extracts, are used to investigate the dealkylation tendency of the compounds of the formula I according to the invention in comparison to 4-amino-2-(4,4-dimethyl-2-oxoimidazolidin-1-yl)pyrimidine-5-N-(ethyl)-N-(3-trifluoromethyl-phenyl)carboxamide hydrochloride (compound of Example 2 from EP 0 557 879--in the following called compound B).
Frozen samples of pieces of human liver stored at -78° C. were thawed by introducing them into a 1.1% strength potassium chloride solution at a temperature of 4° C. […] After thawing, the pieces of liver were prepared by standard processes [A. Y. H. Lu, W. Levin; Biochem. Biophys. Res. Comm. 46, 1339-1344 (1972), P. G. Gervasi et al.; Xenobiotica 12/8, 517 (1982)]. The temperature was kept between 0° and 4° C. during the preparation. The 9000 g fractions of ten human livers were mixed in order to exclude interindividual enzyme differences.
The test substances were dissolved in DMSO at a concentration of about 10 mg/ml. Aliquot parts of this solution were added under sterile conditions to the hepatocyte cultures or the 9000 g fractions. The incubations were carried out at 37° C. in an atmosphere having 5% CO2 and >90% atmospheric humidity. […] NADPH and Mg^2+ were added to the 9000 g fractions as cofactors [P. G. Gervasi et al.; Xenobiotica 12/8, 517 (1982)]. All samples were frozen immediately after incubation and stored at below -20° C. until analysis.
For each species and each time, all incubations with hepatocytes and 9000 g fractions were carried out without addition of a test substance. The samples obtained were used as controls in the chromatographic analysis.
For the quantitative determination of compound A, i.e. the R^1 -dealkylated metabolite, in the in vitro incubation mixtures, […] of each mixture was in each case diluted with […] of bovine serum. These samples were analyzed by the following test for the determination of compound B free base and metabolite compound A free base in serum:
Fifty microliters of the prepared solution of an internal standard (10 μg of a compound of the formula I where R^1 =CH3, R^2, R^3 =H and R^4 =CF3 /ml of methanol), 0.1 ml of sodium acetate buffer (0.4M, pH 5.5) and 5 ml of ethyl ether were added to 0.1 ml of serum. The mixture was shaken for 20 min. After centrifuging, 4 ml of the organic phase were transferred, 3 ml of n-hexane were added and the mixture was extracted with 0.5 ml of 1% strength (v/v) aqueous trifluoroacetic acid. The upper organic layer was aspirated off and discarded. The aqueous residue was evaporated at 40° C. for 30 min. in order to remove residues of the organic solvent. 100 μl of the remaining aqueous phase were injected into the HPLC apparatus. HPLC analysis was carried out on a C18 RP column (TosoHaas Semi-Micro TSK gel ODS 80 TS) using a mobile phase of 800 g of water, 270 g of acetonitrile and 1 ml of trifluoroacetic acid. The flow rate was 0.2 ml/min. The quantitative determination of the analytes was carried out by measuring the peak heights with the aid of a UV detector at γ=240 nm. The calibration range was between 50 and 0.05 μg/ml corresponding to 200 to 0.2 μg/ml in the undiluted in vitro sample. The detection limit was 0.05 μg/ml corresponding to 0.2 μg/ml in the undiluted in vitro sample.

LDL receptor mRNA [3] = assay: Stimulation of LDL receptor mRNA expression in HepG2 cells (Northern blot); assay type: cell-based; settings: Homo sapiens, 2 × 10^-6 M, 16 h incubation, 10% fetal calf serum, LDL receptor/β-actin quotient, control=100%
Source text: as §1
The preparation of the mRNA was carried out according to the method of Chomczynski, P. and Sacchi, N., Anal. Biochem. 162, 156-159 (1987). In organs (such as, for example, liver), the deep-frozen tissue was homogenized on dry ice beforehand in a mortar, and the mRNA was further enriched by means of Oligo dT according to standard methods (cf. Sambrook, J., Fritsch, E. F. and Maniatis, T., Molecular Cloning, second Edition, Cold Spring Harbor (1989); in this collection of methods, there are also descriptions of all further relevant molecular biology standard methods used here). […] The filters were then exposed at -70° C. on Cronex 4 films (Dupont) overnight up to 14 days in the presence of an intensifying screen, and the hybridization signals were quantified using a commercial laser densitometer by means of the film-blackening intensity. The quotient of the intensity of the LDL receptor band and of the actin band was then determined as an internal standard to correct yield variations.
Table I presents the stimulation of the LDL receptor mRNA expression in HepG2 cells by selected compounds of formula I in whole serum (final concentration of the compounds […]) after a 16 h incubation. […] The total mRNA was then prepared, and the relevant LDL receptor mRNA and β-actin mRNA levels were determined by means of the Northern blot technique. […]

CC1(C)CN(c2ncc(C(=O)N(CC(F)(F)C(F)(F)C(F)(F)F)c3cccc(C(F)(F)F)c3)c(N)n2)C(=O)N1 [Example 2, 4-Amino-2-(4,4-dimethylimidazolidin-2-on-1-yl)pyrimidine-5-N-(2,2,3,3,4,4,4-heptafluorobutyl)-N-[(3-trifluoromethyl)phenyl]carboxamide hydrochloride]
response vs control in vivo at 30 mg/kg (LDL receptor mRNA [1]): 245% | metabolised at 0.5 h [2]: < 2% | metabolised at 1 h [2]: < 2% | metabolised at 2 h [2]: < 2% | metabolised at 3 h [2]: < 2%

CC1(C)CN(c2ncc(C(=O)N(CCF)c3cccc(C(F)(F)F)c3)c(N)n2)C(=O)N1 [Example 12, 4-Amino-2-(4,4-dimethylimidazolidin-2-on-1-yl)pyrimidine-5-[N-(3-trifluoromethylphenyl)-N-(2-fluoroethyl)]carboxamide]
metabolised at 0.5 h [2]: 2% | metabolised at 1 h [2]: 4% | metabolised at 2 h [2]: 6% | metabolised at 3 h [2]: 9%

CC1(C)CN(c2ncc(C(=O)N(CC(F)(F)C(F)(F)C(F)(F)F)c3ccc(Cl)c(C(F)(F)F)c3)c(N)n2)C(=O)N1 [Example 10, 4-Amino-2-(4,4-dimethylimidazolidin-2-on-1-yl)pyrimidine-5-N-[(4-chloro-3-trifluoromethyl)phenyl]-N-(2,2,3,3,4,4,4-heptafluorobutyl)carboxamide]
activity at 2 µM (LDL receptor mRNA [3]): 206%

CC1(C)CN(c2ncc(C(=O)N(CC(F)(F)C(F)(F)F)c3cccc(C(F)(F)F)c3)c(N)n2)C(=O)N1 [Example 3, 4-Amino-2-(4,4-dimethylimidazolidin-2-on-1-yl-pyrimidine-5-N-(2,2,3,3,3-pentafluoropropyl)-N-[(3trifluoromethyl)phenyl]carboxamide hydrochloride]
response vs control in vivo at 30 mg/kg (LDL receptor mRNA [1]): 200%

CC1(C)CN(c2ncc(C(=O)N(CC(F)(F)F)c3cccc(C(F)(F)F)c3)c(N)n2)C(=O)N1 [Example 1, 4-Amino-2-(4,4-dimethylimidazolidin-2-on-1-yl) pyrimidine-5-N-(2,2,2-trifluoroethyl)-N-[(3-trifluoromethyl)phenyl]carboxamide hydrochloride]
activity at 2 µM (LDL receptor mRNA [3]): 220% | response vs control in vivo at 30 mg/kg (LDL receptor mRNA [1]): 220% | metabolised at 0.5 h [2]: < 2% | metabolised at 1 h [2]: < 2% | metabolised at 2 h [2]: 3% | metabolised at 3 h [2]: 4%

CC1(C)CN(c2ncc(C(=O)N(CC(F)(F)C(F)(F)F)c3cc(C(F)(F)F)ccc3Cl)c(N)n2)C(=O)N1 [Example 11, 4-Amino-2-(4,4-dimethylimidazolidin-2-on-1-yl)pyrimidine-5-N-[(6-chloro-3-trifluoromethyl)phenyl]-N-(2,2,3,3,3-pentafluoropropyl)carboxamide hydrochloride]
activity at 2 µM (LDL receptor mRNA [3]): 290%

CC1(C)CN(c2ncc(C(=O)N(CC(F)(F)F)c3ccc(Cl)c(C(F)(F)F)c3)c(N)n2)C(=O)N1 [Example 8, 4-Amino-2-(4,4-dimethylimidazolidin-2-on-1-yl)pyrimidine-5-N-[(4-chloro-3-trifluoromethyl)phenyl]-N-(2,2,2-trifluoroethyl)carboxamide hydrochloride]
response vs control in vivo at 30 mg/kg (LDL receptor mRNA [1]): 182%

CC1(C)CN(c2ncc(C(=O)N(CC(F)(F)C(F)(F)C(F)(F)F)c3cc(C(F)(F)F)ccc3Cl)c(N)n2)C(=O)N1 [Example 14, 4-Amino-2-(4,4-dimethylimidazolidin-2-on-1-yl)pyrimidine-5-[N-(3-trifluoromethyl-6-chlorophenyl)-N-(2,2,3,3,4,4,4-heptafluorobutyl)]-carboxamide]
response vs control in vivo at 30 mg/kg (LDL receptor mRNA [1]): 194%

CC1(C)CN(c2ncc(C(=O)N(CC(F)(F)F)c3ccc(F)c(C(F)(F)F)c3)c(N)n2)C(=O)N1 [Example 6, 4-Amino-2-(4,4-dimethylimidazolidin-2-on-1-yl)pyrimidine-5-N-(2,2,2-trifluoroethyl)-N-[(4-fluoro-3-trifluoromethyl)phenyl]carboxamide]
response vs control in vivo at 30 mg/kg (LDL receptor mRNA [1]): 216%

CC1(C)CN(c2ncc(C(=O)N(CC(F)(F)C(F)(F)F)c3ccc(Cl)c(C(F)(F)F)c3)c(N)n2)C(=O)N1 [Example 9, 4-Amino-2-(4,4-dimethylimidazolidin-2-on-1-yl)pyrimidine-5-N-[(4-chloro-3-trifluoromethyl)phenyl]-N-(2,2,3,3,3-pentafluoropropyl)carboxamide]
response vs control in vivo at 30 mg/kg (LDL receptor mRNA [1]): 193%

CC1(C)CN(c2ncc(C(=O)N(CC(F)(F)C(F)(F)C(F)(F)F)c3ccc(F)c(C(F)(F)F)c3)c(N)n2)C(=O)N1 [Example 17, 4-Amino-2-(4,4-dimethylimidazolidin-2-on-1-yl)-5-pyrimidine-5-[N-(3-trifluoromethyl-4-fluorophenyl)-N-(2,2,3,3,4,4,4-heptafluorobutyl)]-carboxamide]
response vs control in vivo at 30 mg/kg (LDL receptor mRNA [1]): 195%

CCN(C(=O)c1cnc(N2CC(C)(C)NC2=O)nc1N)c1cccc(C(F)(F)F)c1 [Compound B, 4-amino-2-(4,4-dimethyl-2-oxoimidazolidin-1-yl)pyrimidine-5-N-(ethyl)-N-(3-trifluoromethyl-phenyl)carboxamide hydrochloride, reference compound]
metabolised at 0.5 h [2]: 4% | metabolised at 1 h [2]: 8% | metabolised at 2 h [2]: 10% | metabolised at 3 h [2]: 12%

Source: patent US5773447A, “Compounds for treating disorders of lipid metabolism and their preparation” (Hoechst Aktiengesellschaft, priority 1996, dated 1998)
